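Compound exposure: 48 hours, 5 concentrations, 96-well plates. Abbreviation: GI50, concentration required for 50% inhibition of growth.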 Calls of active or inactive are those of the source. Cut-off read from the data, not from the text of the source: active = GI50 up to about 1.1 µM and inactive = higher.
Legend:
Assay in all cases: NCI-60 cell line screen, 48 h
[1] = system: EKVX
[2] = system: HCT-116
[3] = system: HOP-92
[4] = system: HT-29
[5] = system: K562
[6] = system: Malme-3M
[7] = system: NCI-H226
[8] = system: NCI-H460
[9] = system: OVCAR-3
[10] = system: OVCAR-4
[11] = system: OVCAR-8
[12] = system: SK-MEL-2
[13] = system: SN12C
[14] = system: SNB-19
[15] = system: SW-620
[16] = system: UACC-62
[17] = system: CAKI-1
[18] = system: ACHN
[19] = system: SR
[20] = system: TK-10

Row | SMILES | GI50 [1] | GI50 [2] | GI50 [3] | GI50 [4] | GI50 [5] | GI50 [6] | GI50 [7] | GI50 [8] | GI50 [9] | GI50 [10] | GI50 [11] | GI50 [12] | GI50 [13] | GI50 [14] | GI50 [15] | GI50 [16] | GI50 [17] | GI50 [18] | GI50 [19] | GI50 [20]
1 | O=C1ON(Cc2ccccc2)C(c2ccccc2)N1c1ccccc1 (stereo unspecified) | > 100 µM (inactive) | > 100 µM (inactive) | > 100 µM (inactive) | > 100 µM (inactive) | > 95.9 µM (inactive) | > 100 µM (inactive) | 99.1 µM (inactive) | > 100 µM (inactive) | > 100 µM (inactive) | > 100 µM (inactive) | > 100 µM (inactive) | > 100 µM (inactive) | > 100 µM (inactive) | > 100 µM (inactive) | > 100 µM (inactive) | 98.9 µM (inactive) |  |  |  | 
2 | O=NN1C(c2ccccc2)CCCC1c1ccccc1 (stereo unspecified) | > 62.2 µM (inactive) | 47.9 µM (inactive) | 36.4 µM (inactive) | 22.9 µM (inactive) | 35.9 µM (inactive) | > 65.5 µM (inactive) | > 100 µM (inactive) | 43.9 µM (inactive) | > 41.8 µM (inactive) | 35.9 µM (inactive) | > 43.8 µM (inactive) | 45.9 µM (inactive) | > 100 µM (inactive) | > 100 µM (inactive) | > 92.7 µM (inactive) | > 94.8 µM (inactive) | 97.7 µM (inactive) |  |  | 
3 | C=CCN1/C(=C(\C#N)c2nc3ccccc3[nH]2)Sc2c1nc[nH]c2=O | > 100 µM (inactive) | > 100 µM (inactive) | > 100 µM (inactive) | > 100 µM (inactive) | > 100 µM (inactive) | > 100 µM (inactive) |  | > 100 µM (inactive) | > 100 µM (inactive) | > 100 µM (inactive) | > 100 µM (inactive) | > 100 µM (inactive) | > 100 µM (inactive) | > 100 µM (inactive) | > 100 µM (inactive) | > 100 µM (inactive) | > 100 µM (inactive) | > 100 µM (inactive) | > 100 µM (inactive) | > 100 µM (inactive)
4 | CC(=O)OCC1OC(OCCCCCCO)C(OC(C)=O)C(OC(C)=O)C1OC(C)=O (stereo unspecified) | > 100 µM (inactive) | > 100 µM (inactive) | > 100 µM (inactive) | > 100 µM (inactive) | > 100 µM (inactive) |  | > 100 µM (inactive) | > 100 µM (inactive) | > 100 µM (inactive) | > 100 µM (inactive) | > 100 µM (inactive) | > 100 µM (inactive) | > 100 µM (inactive) | > 100 µM (inactive) | > 100 µM (inactive) | > 100 µM (inactive) | > 100 µM (inactive) | > 100 µM (inactive) | > 100 µM (inactive) | > 100 µM (inactive)
5 | O=C1C(Cl)N(c2cccc(Cl)c2)C1c1c[nH]c2ccccc12 (stereo unspecified) | > 100 µM (inactive) | > 100 µM (inactive) | > 100 µM (inactive) | > 100 µM (inactive) | > 100 µM (inactive) | > 100 µM (inactive) |  | > 100 µM (inactive) | > 100 µM (inactive) | > 100 µM (inactive) | > 100 µM (inactive) | > 100 µM (inactive) | > 100 µM (inactive) | > 100 µM (inactive) | > 100 µM (inactive) | > 100 µM (inactive) |  |  | > 100 µM (inactive) | > 100 µM (inactive)
6 | O=C(CC(C(=O)c1cccs1)c1ccc2c(c1)OCO2)c1ccc(Br)cc1 (stereo unspecified) | > 100 µM (inactive) |  |  |  | > 100 µM (inactive) | > 100 µM (inactive) | > 100 µM (inactive) | > 100 µM (inactive) |  | > 100 µM (inactive) | > 100 µM (inactive) |  | > 100 µM (inactive) | 8.51 µM (inactive) | > 100 µM (inactive) | > 100 µM (inactive) | > 100 µM (inactive) | > 100 µM (inactive) | > 100 µM (inactive) | > 100 µM (inactive)
7 | COc1ccc2c(c1)CCN=C2Cc1cc(OC)c(OC)cc1CCCl | > 100 µM (inactive) | 44.5 µM (inactive) | 11.1 µM (inactive) | 26.9 µM (inactive) | 81.1 µM (inactive) | 27.4 µM (inactive) | 64.6 µM (inactive) | 69.8 µM (inactive) | 22.7 µM (inactive) | > 100 µM (inactive) | > 100 µM (inactive) | > 100 µM (inactive) | 48.4 µM (inactive) | 97.1 µM (inactive) | > 100 µM (inactive) | 53.8 µM (inactive) | > 100 µM (inactive) | 57 µM (inactive) | 94.6 µM (inactive) | 35.7 µM (inactive)
8 | N#CC1(C#N)C(=O)c2ccncc2C1=O | > 100 µM (inactive) | > 100 µM (inactive) | > 100 µM (inactive) | > 100 µM (inactive) | > 100 µM (inactive) | > 100 µM (inactive) | > 100 µM (inactive) | > 100 µM (inactive) | > 100 µM (inactive) | > 100 µM (inactive) | > 100 µM (inactive) | > 100 µM (inactive) | > 100 µM (inactive) | > 100 µM (inactive) | > 100 µM (inactive) | > 100 µM (inactive) | > 100 µM (inactive) | > 100 µM (inactive) | > 100 µM (inactive) | 
9 | CN1NC(c2ccccc2)=C(C#N)C(=O)CC1c1ccc(Br)cc1 (stereo unspecified) |  | 36.8 µM (inactive) | 35.2 µM (inactive) | 28.9 µM (inactive) |  | 23.3 µM (inactive) | 0.123 µM (active) | 33.3 µM (inactive) |  | 45.6 µM (inactive) |  | 28.3 µM (inactive) | 44.9 µM (inactive) | 28.8 µM (inactive) | 25.6 µM (inactive) |  | 41.9 µM (inactive) | 34 µM (inactive) | 36.2 µM (inactive) | 75.3 µM (inactive)
10 | O=C1NC2=C(CCCC/C2=N\O)C12CCCCC2 | > 100 µM (inactive) | > 100 µM (inactive) |  | > 100 µM (inactive) | > 100 µM (inactive) | > 100 µM (inactive) | > 100 µM (inactive) | > 100 µM (inactive) | > 100 µM (inactive) | > 100 µM (inactive) |  |  | > 100 µM (inactive) | > 100 µM (inactive) | > 100 µM (inactive) | > 100 µM (inactive) |  | > 100 µM (inactive) | 80.9 µM (inactive) | > 100 µM (inactive)
11 | COC(=O)C12CC3CC(CC(C(=O)O)(C3)C1)C2 | > 100 µM (inactive) | > 100 µM (inactive) | > 100 µM (inactive) | > 100 µM (inactive) | > 100 µM (inactive) |  |  | > 100 µM (inactive) | > 100 µM (inactive) | > 100 µM (inactive) | > 100 µM (inactive) |  | > 100 µM (inactive) | > 100 µM (inactive) | > 100 µM (inactive) | > 100 µM (inactive) | > 100 µM (inactive) | > 100 µM (inactive) | > 100 µM (inactive) | > 100 µM (inactive)
12 | C=C(C)[C@@H]1CCC2=C[C@H](CC(C)=CC3=CC(C)=C(O3)[C@@H]1OC)OC2=O | 59.2 µM (inactive) |  | 33.3 µM (inactive) |  | > 100 µM (inactive) | > 100 µM (inactive) | 73.8 µM (inactive) | > 100 µM (inactive) | > 100 µM (inactive) | > 100 µM (inactive) | 40.7 µM (inactive) | 20.9 µM (inactive) | > 100 µM (inactive) | 37.2 µM (inactive) | > 100 µM (inactive) | 29.7 µM (inactive) | > 100 µM (inactive) | 76.6 µM (inactive) | > 100 µM (inactive) | 85.3 µM (inactive)
13 | CCOC(=O)c1ccc(N(CCOS(=O)(=O)c2ccc(C)cc2)CCOS(=O)(=O)c2ccc(C)cc2)cc1 | > 100 µM (inactive) | 27.3 µM (inactive) | > 100 µM (inactive) | > 100 µM (inactive) | > 100 µM (inactive) | > 100 µM (inactive) |  | 4.66 µM (inactive) | > 100 µM (inactive) | 32.8 µM (inactive) | > 100 µM (inactive) | 19.8 µM (inactive) | < 0.01 µM (active) | > 100 µM (inactive) | 1.95 µM (inactive) | > 100 µM (inactive) | 4.94 µM (inactive) | 6.78 µM (inactive) |  | > 100 µM (inactive)
14 | CCOC(=O)CC(=O)CSc1c(-c2ccccc2)c(=O)n(-c2ccccc2)c(=S)n1-c1ccccc1 | > 100 µM (inactive) | > 100 µM (inactive) | > 100 µM (inactive) | > 100 µM (inactive) | > 100 µM (inactive) | > 100 µM (inactive) | > 100 µM (inactive) | > 100 µM (inactive) | > 100 µM (inactive) | > 100 µM (inactive) | > 100 µM (inactive) |  | > 100 µM (inactive) | > 100 µM (inactive) | > 100 µM (inactive) | > 100 µM (inactive) | > 100 µM (inactive) | > 100 µM (inactive) | 95.1 µM (inactive) | > 100 µM (inactive)
15 | O=S(=O)(O)c1ccc(/N=N\c2ccc(/N=N/c3ccc(/C=C/c4ccc(/N=[N+](\[O-])c5ccc(/C=C/c6ccc(/N=N/c7ccc(/N=N/c8ccc(S(=O)(=O)O)cc8)c8ccccc78)cc6S(=O)(=O)O)c(S(=O)(=O)O)c5)cc4S(=O)(=O)O)c(S(=O)(=O)O)c3)c3ccccc23)cc1 | > 100 µM (inactive) | > 100 µM (inactive) | > 81.1 µM (inactive) | > 100 µM (inactive) | > 100 µM (inactive) | > 100 µM (inactive) | > 83.4 µM (inactive) | > 100 µM (inactive) | 99.1 µM (inactive) | > 100 µM (inactive) | > 100 µM (inactive) | > 100 µM (inactive) | > 100 µM (inactive) | > 10 µM (inactive) | > 100 µM (inactive) | > 100 µM (inactive) |  |  |  | 
